Laboratory results taken from US20210198269A1, “INHIBITORS OF GLUCOSE TRANSPORTERS (GLUTs)” (LEAD DISCOVERY CENTER GMBH, priority 2018, published 2021).

How the values were obtained:
Assay type in all cases: cell-based
HCT116 cells = test: 2-Deoxy-Glucose (2-DG) uptake assay in HCT116 cells; details: Homo sapiens, HCT-116, 0.5 h, 1 mM 2-DG, 30 min, read-out: IC50 determined for the inhibition of 2-DG uptake in HCT116 cells
Procedure: The 2-DG uptake assay was carried out as described by Yamamoto N. et al. with slight modifications ([…]). Briefly, 40,000 HCT116 or CHO cells were seeded in black, clear bottom 96-well plates and allowed to attach overnight. Cells were incubated with compounds or DMSO and 1 mM 2-DG in glucose-free KRB buffer (20 mM HEPES, 5 mM KH2PO4, 1 mM MgSO4, 1 mM CaCl2), 136 mM NaCl, 0.1% BSA, pH 7.4) for 30 min. In the case of GLUT-4 transfected cells, Insulin (100 μg/mL) was added to the buffer. Cells were then washed and lysed in 0.06 M HCl and 1% CHAPS for 15 min at 65° C. while shaking. The amount of 2-DG in the lysate was determined by means of enzyme-coupled assay. For this 6.4 U/mL glucose-6-phosphate dehydrogenase, 0.2 U/mL diaphorase, 0.1 mM NADP^+ and 0.025 mg/mL resazurin were added to the lysates. Resorufin fluorescence was determined as a measure of 2-DG uptake at ex/em 535/590 nm with a Tecan Infinite M200 plate reader (Tecan). Blank values were subtracted from all readings and values were normalized to the DMSO control.

GLUT4 = molecular target: T1, GLUT4 (Homo sapiens, UniProt P14672); test: GLUT4 transporter activity assay (2-DG uptake) in CHO-hGLUT4 cells; details: CHO-hGLUT4 cell line; read-out: GLUT4 inhibitory activity (IC50)
T1 sequence (P14672 1-509): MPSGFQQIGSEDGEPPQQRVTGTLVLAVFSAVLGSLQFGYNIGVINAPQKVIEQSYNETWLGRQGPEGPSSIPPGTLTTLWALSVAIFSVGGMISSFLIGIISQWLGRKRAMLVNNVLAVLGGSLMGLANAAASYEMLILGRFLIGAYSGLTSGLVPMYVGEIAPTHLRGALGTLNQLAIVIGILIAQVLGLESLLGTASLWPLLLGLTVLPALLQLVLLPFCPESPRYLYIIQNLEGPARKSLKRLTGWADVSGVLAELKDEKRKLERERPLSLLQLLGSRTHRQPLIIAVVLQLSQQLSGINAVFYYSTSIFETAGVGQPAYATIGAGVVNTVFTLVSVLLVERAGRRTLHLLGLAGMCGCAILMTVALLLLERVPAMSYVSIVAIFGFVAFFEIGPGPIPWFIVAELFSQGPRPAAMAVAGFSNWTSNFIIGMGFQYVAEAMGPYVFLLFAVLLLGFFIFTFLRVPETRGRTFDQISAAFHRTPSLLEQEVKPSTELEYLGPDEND
Procedure: CHOK1-SLC2A4 cells were generated by transfection of CHOK1 cells with pCMV6-Entry-GLUT4 (Origene #SC125240) using Lipofectamin2000 according to the supplier's instructions. Briefly, 1.5E5 cells/well CHOK1 cells were seeded in 6-well cell culture plates. After overnight incubation, DNA-lipid complexes (2 μg plasmid DNA, DNA:lipid ratio 1:10) were prepared in OptiMEM and then added to the cells. After 5 days incubation, 800 μg G418 was added to the culture medium to generate a stable polyclone. For monoclone selection, single cells were re-plated in 96-well plates, expanded and selected by transgene overexpression and functional performance.
(§1) GLUT 1, 2, 3 and 4 Transporter Activity Assays
(§2) Assays were based on the specificity assays reported by Kapoor et al., Proceedings of the National Academy of Sciences 2016, 113 (17) 4711-4716. For GLUT1, GLUT2, GLUT3 and GLUT4 specificity testing DLD1, CHO-hGLUT2, DLD-1-GLUT1−/− and CHO-hGLUT4 cell lines were used.
(§3) Assay protocols for 2-deoxy-Glucose (2-DG) Uptake Assay with DLD1 or DLD1-Glut1(−/−) cells or 7,000 CHOK1-SLC2A4 cells lines:
(§4) 14,000 DLD1 or DLD1-Glut1(−/−) cells or 7,000 CHOK1-SLC2A4 cells were seeded in black, clear bottom 384-well plates in glucose- and phenolred-free RPMI1640 medium supplemented with 1% FCS and 2 mM L-glutamine and allowed to attach overnight. Next day, cells were washed and incubated with compounds or DMSO and 1 mM 2-DG in glucose- and phenolred-free RPMI1640 medium for 30 min. Cells were then washed and lysed in 0.06 M HCl and 1% CHAPS for 15 min at 65° C. The amount of 2-DG in the lysate was determined by means of enzyme-coupled assay. For this 16 U/mL glucose-6-phosphate dehydrogenase, 0.2 U/mL diaphorase, 0.1 mM NADP^+ and 10 μM resazurin were added to the lysates. Resorufin fluorescence was determined as a measure of 2-DG uptake at ex/em 535/590 nm with a Victor Multilabel plate reader (Perkin Elmer). Blank values were subtracted from all readings and values were normalized to the DMSO control.

GLUT3 = molecular target: T2, GLUT3 (Homo sapiens, UniProt P11169); test: GLUT3 transporter activity assay (2-DG uptake) in DLD-1-GLUT1-/- cells; details: DLD-1-GLUT1-/- cell line; read-out: GLUT3 inhibitory activity (IC50)
T2 construct: host or cells: DLD-1-GLUT1(-/-) cells
T2 sequence (P11169 1-496): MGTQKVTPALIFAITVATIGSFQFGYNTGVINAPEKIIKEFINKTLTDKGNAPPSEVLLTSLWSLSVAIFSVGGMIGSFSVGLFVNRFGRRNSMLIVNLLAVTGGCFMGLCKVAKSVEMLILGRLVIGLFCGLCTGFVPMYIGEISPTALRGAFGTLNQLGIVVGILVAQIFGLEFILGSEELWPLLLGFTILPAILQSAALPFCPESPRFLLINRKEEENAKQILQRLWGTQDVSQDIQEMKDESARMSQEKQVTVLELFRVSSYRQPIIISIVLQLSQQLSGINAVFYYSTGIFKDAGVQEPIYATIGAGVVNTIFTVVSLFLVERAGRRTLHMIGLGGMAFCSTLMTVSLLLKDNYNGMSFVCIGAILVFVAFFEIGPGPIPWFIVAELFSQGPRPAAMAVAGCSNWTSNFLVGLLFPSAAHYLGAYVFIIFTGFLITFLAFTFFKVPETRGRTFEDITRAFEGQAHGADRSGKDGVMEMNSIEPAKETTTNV
Text: as §1, §2, §3, §4

GLUT1 = molecular target: T3, GLUT1 (Homo sapiens, UniProt P11166); test: GLUT1 transporter activity assay (2-DG uptake) in DLD1 cells; details: DLD1 cell line; read-out: GLUT1 inhibitory activity (IC50)
T3 construct: host or cells: DLD-1 (DLD1) cells
T3 sequence (P11166 1-492): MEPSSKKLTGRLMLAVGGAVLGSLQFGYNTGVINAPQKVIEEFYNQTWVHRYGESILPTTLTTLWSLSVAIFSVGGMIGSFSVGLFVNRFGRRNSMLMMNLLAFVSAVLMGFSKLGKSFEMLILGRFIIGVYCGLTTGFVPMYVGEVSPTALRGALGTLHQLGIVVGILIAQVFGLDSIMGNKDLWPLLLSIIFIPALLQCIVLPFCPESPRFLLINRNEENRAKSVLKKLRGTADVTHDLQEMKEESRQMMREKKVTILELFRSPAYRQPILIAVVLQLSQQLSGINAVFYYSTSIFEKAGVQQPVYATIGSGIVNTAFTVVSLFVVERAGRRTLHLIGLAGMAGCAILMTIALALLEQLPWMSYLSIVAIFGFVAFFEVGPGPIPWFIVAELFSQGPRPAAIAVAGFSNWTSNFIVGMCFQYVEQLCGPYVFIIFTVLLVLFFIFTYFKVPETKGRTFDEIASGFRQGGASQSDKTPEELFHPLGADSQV
Text: as §1, §2, §3, §4

GLUT2 = molecular target: T4, GLUT2 (Homo sapiens, UniProt P11168); test: GLUT2 transporter activity assay in CHO-hGLUT2 cells (indirect, intracellular ATP levels); details: CHO-hGLUT2 cell line; read-out: GLUT2 inhibitory activity (IC50)
T4 sequence (P11168 1-524): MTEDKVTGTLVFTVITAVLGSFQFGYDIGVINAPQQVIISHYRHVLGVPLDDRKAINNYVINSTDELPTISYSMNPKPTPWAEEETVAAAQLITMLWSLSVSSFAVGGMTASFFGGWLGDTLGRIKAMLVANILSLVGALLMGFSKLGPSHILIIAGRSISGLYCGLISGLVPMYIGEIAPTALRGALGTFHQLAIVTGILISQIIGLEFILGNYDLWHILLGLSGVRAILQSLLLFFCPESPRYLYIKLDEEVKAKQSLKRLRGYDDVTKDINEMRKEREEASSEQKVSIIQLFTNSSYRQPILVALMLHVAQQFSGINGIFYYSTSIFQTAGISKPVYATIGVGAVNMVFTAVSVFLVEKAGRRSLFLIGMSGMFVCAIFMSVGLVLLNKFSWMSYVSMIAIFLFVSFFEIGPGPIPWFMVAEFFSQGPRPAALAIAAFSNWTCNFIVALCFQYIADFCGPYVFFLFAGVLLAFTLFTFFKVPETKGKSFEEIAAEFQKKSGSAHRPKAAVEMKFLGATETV
Text: as §1, §2
Example 8-3: Indirect Measurement of GLUT2 (SLC2A2) Activity by Quantification of Intracellular ATP Levels
A combination of small-molecule inhibitors of mitochondrial electron transport chain and glucose catabolism synergistically suppress ATP production and impair cellular viability (Ulanovskaya et al., 2008, 2011; Liu, et al. 2001). We therefore used CHOK1 cells overexpressing SLC2A2 (CHOK1-SLC2A2) in combination with an oxidative phosphorylation inhibitor (Rotenon) to identify GLUT2 inhibitors. CHOK1-SLC2A2 cells were purchased from creative biogene (catNo: CSC-SC014484) and maintained in RPMI1640 supplemented with 10% FBS and 2 mM L-Glutamine. For the Glut2-ATP-Assay, 7,500 cells were seeded in black, clear bottom 384-well plates directly in glucose- and phenolred-free RPMI1640 medium supplemented with 1% FCS and 2 mM L-glutamine and cultured overnight to reduce intracellular ATP levels. Next day, cells were washed and incubated with […] and compounds or DMSO and 2.5 mM fructose in glucose- and phenolred-free RPMI1640 medium for 40 min. The CellTiter-Glo® Luminescence Viability Assay from Promega was used to measure ATP levels. Luminescence was measured with a Victor Multilabel plate reader (Perkin Elmer). Blank values were subtracted from all readings and values were normalized to the DMSO control.

Row | Structure (SMILES) | IC50 (HCT116 cells) [µM] | IC50 (GLUT4) [µM] | IC50 (GLUT3) [µM] | IC50 (GLUT1) [µM] | IC50 (GLUT2) [µM]
1 | Cc1ccc(CCNC(=O)c2cccc(N3C(=O)NC4CC3(C)Oc3c(OCc5ccccc5C)cccc34)c2)cc1 (stereo not shown) [Compound A02, 3-(2-Methyl-10-((2-methylbenzyl)oxy)-4-oxo-5,6-dihydro-2H-2,6-methanobenzo[g][1,3,5]oxadiazocin-3(4H)-yl)-N-(4-methylphenethyl)benzamide] | ≤ 5 | > 25 | 1 to 4 | 1 to 4 | 
2 | Cc1ccc(CCNC(=O)c2cccc(N3C(=O)NC4CC3(C)Oc3c(OCc5ccc([N+](=O)[O-])cc5)cccc34)c2)cc1 (stereo not shown) [Compound A03, 3-(2-Methyl-10-((4-nitrobenzyl)oxy)-4-oxo-5,6-dihydro-2H-2,6-methanobenzo[g][1,3,5]oxadiazocin-3(4H)-yl)-N-(4-methylphenethyl)benzamide] | ≤ 5 | 4 to 10 | 0.3 to 1 | 0.3 to 1 | 
3 | Cc1ccc(CCNC(=O)c2cccc(N3C(=O)NC4CC3(C)Oc3c(OCc5cccc(Cl)c5)cccc34)c2)cc1 (stereo not shown) [Compound A04, 3-(10-((3-Chlorobenzyl)oxy)-2-methyl-4-oxo-5,6-dihydro-2H-2,6-methanobenzo[g][1,3,5]oxadiazocin-3(4H)-yl)-N-(4-methylphenethyl)benzamide] | ≤ 5 | > 25 | 0.3 to 1 | 0.3 to 1 | 
4 | Cc1ccc(CCNC(=O)c2cccc(N3C(=O)NC4CC3(C)Oc3c(OCc5ccc(C#N)cc5)cccc34)c2)cc1 (stereo not shown) [Compound A05, 3-(10-((4-Cyanobenzyl)oxy)-2-methyl-4-oxo-5,6-dihydro-2H-2,6-methanobenzo[g][1,3,5]oxadiazocin-3(4H)-yl)-N-(4-methylphenethyl)benzamide] | ≤ 5 | 4 to 10 | ≤ 0.3 | ≤ 0.3 | 
5 | Cc1ccc(CCNC(=O)c2cccc(N3C(=O)NC4CC3(C)Oc3c(OCc5ccc(C(C)(C)C)cc5)cccc34)c2)cc1 (stereo not shown) [Compound A06, 3-(10-((4-(tert-Butyl)benzyl)oxy)-2-methyl-4-oxo-5,6-dihydro-2H-2,6-methanobenzo[g][1,3,5]oxadiazocin-3(4H)-yl)-N-(4-methylphenethyl)benzamide] | ≤ 5 |  |  |  | 
6 | Cc1ccc(CCNC(=O)c2cccc(N3C(=O)NC4CC3(C)Oc3c(OCc5ccco5)cccc34)c2)cc1 (stereo not shown) [Compound A07, 3-(10-(Furan-2-ylmethoxy)-2-methyl-4-oxo-5,6-dihydro-2H-2,6-methanobenzo[g][1,3,5]oxadiazocin-3(4H)-yl)-N-(4-methylphenethyl)benzamide] | ≤ 5 | 4 to 10 | 0.3 to 1 | 0.3 to 1 | 
7 | COC(=O)c1cccc(N2C(=O)NC3CC2(C)Oc2c(OCc4ccccc4)cccc23)c1 (stereo not shown) [Compound A37, methyl 3-(10-(benzyloxy)-2-methyl-4-oxo-5,6-dihydro-2H-2,6-methanobenzo[g][1,3,5]oxadiazocin-3(4H)-yl)benzoate] |  | 10 to 25 | 1 to 4 | 1 to 4 | > 25
